SMILES strings stand for the structures. Read-outs that look alike come from different tables or passages of the source.

In test [1] the test system is HOME cells (human omental capillary endothelial cells). The test can be described thus: Migration of wounded HOME cells (wound healing model), with or without TGFα. Also noted: activity: dose or concentration left out as unconfirmed. Format: cell-based. The note with it: Endothelial cell; for activity: 24 h, compound added, read-out: Cell-migration rate (% of non-treatment group); for inhibition at 10 µg/mL: TGFα-free medium, final concentration 10 μg/ml, approximately. The source says:
(§1) An in-vitro angiogenesis models have been established, using human omental capillary endothelial cells (hereinafter referred to as "HOME cells"). One is the angiogenesis models in a process of wound healing formed when the HOME cells are damaged with a razor blade. Another one is a model of HOME cell migration, synthesis of a tissue plasminogen activation factor (t-PA), and HOME-cell tube formation, accelerated by TGFα.
Compound(s) as an active ingredient of the angiogenesis inhibitor of the present invention (hereinafter also simply refer:red to as "compound(s)") were evaluated with respect to an activity to cell migration with human HOME cells in which a wound healing had been made by a razor blade, and cell migration activity accelerated by TGFα.
The HOME cells to be used in this experiment were isolated from human omental fatty tissues and cultured in a M-199 medium containing 10% fetal bovine serum (FBS) over 3 to 5 generations.
TGFα was obtained from Collaborative Research Inc., Bedford, Ma.
The HOME cells were cultured as a monolayer on a collagen-coated plastic dish (35 mm .phi.) to confluent. The thus obtained HOME cells were wounded with a razor blade and then washed twice with a phosphate buffer saline solution (PBS). […] Further, HOME cells were cultured in 1% human serum containing M-199 medium with neither active ingredient nor TGFα at 37° C for 24 hours to prepare a non-treatment group.
On the dish on which the HOME cells were cultured, the numbers of migrated HOME cells were counted, which migrated to the exposed portion of the Collagen-coated plastic dish. A cell-migration rate was calculated, regarding the cell migration numbers of the non-treatment group as 100%.

The test system is the same in test [2]. The test can be described thus: Tube formation of HOME cells induced by TGFα on type-1 collagen gel. As to conditions: for Tube formation remaining (%) at 10 µg/mL: Homo sapiens, Endothelial cell, final concentration 10 μg/ml, read-out: inhibition of tube formation induced by TGFα ("inhibited to"); for Total length of lumen/HPF: Table 7, non-treatment 0.551, control 1.561; for Total length of lumen/HPF / Total tube length/HPF: compound 10 μg/ml, TGFα 10 ng/ml, 3 days; for Total tube length/HPF: Table 6, non-treatment 0.616, control 2.045. Format: cell-based.
Description: as §1
The activity of the active ingredients to the tube formation of the HOME cells induced by TGFα was determined.
At first, 8 volume of a type 1 collagen solution (manufactured by Nitta Gelatin .), 1 volume of 10×M-199 and 1 volume of a reconstituted buffer) [200 mM Hepes, 0.05N sodium hydroxide and 260 mM sodium hydrogen carbonate] were mixed under ice cooling. The mixture was placed on plastic dishes (30 mm diameter, manufactured by Corning.) and allowed to stand still at 37° C. to make gel, thereby preparing a type-1 collagen gel.
Subsequently, the HOME cells were suspended in 10% FBS containing M-199 medium and then dispersed on the type 1 collagen gel mentioned above and incubated at 37° C.
When the HOME cells were incubated to confluent , they were transferred to 1% human serum containing M-199 mediums to which compounds (1), (2) and (4) to (12) (a final concentration: 10 μg/ml) were individually added together with TGFα (final concentration 10 ng/ml). These mediums were incubated for 3 days.
The HOME cells were also transferred to a 1% human serum containing M-199 medium with TGFα alone to prepare a control group and transferred to a 1% human serum containing M-199 medium to prepare a non-treatment group. They were also incubated for 3 days.
Two days after the incubation started, the culture mediums were exchanged. At three days, photographic picture of each dish was taken by a video camera (R5000H, Fuji, Tokyo), using a phase-contrast microscope at 200 magnification of the object. 8 views were taken for each dishes. The total tube length per one view formed by the HOME cells was measured by using a Cosmozone IS image analyzer (manufactured by Nikon).

Test [3] relates to HOME cells co-cultured with human esophagus cancer cells (TE-1). The test can be described thus: Tube formation of HOME cells induced by human cancer cells (co-culture with TE-1 cells). The note with it: Table 8; compound 10 μg/ml; TE-1 co-culture; non-treatment 0.348, control 1.551. Format: cell-based. How it is done:
In a co-culture of the HOME cells and human cancer cells, the activity of the compounds to the tube formation of the HOME cells induced by the human cancer cells was determined. This experiment was carried out in accordance with the co-culture method described in Morisaki, Saito, et al., "Co-culture test system of vascular endothelial cells and tunica media smooth muscle cells".
The HOME cells on the type-1 collagen gel prepared in Experiment 2 and human esophagus cancer cells (TE-1) were co-cultured to assemble a tube formation assay system. More specifically, using a plate (manufactured by Corning Co.,) having 6 holes (each hole size: 38×7 mm) in the outer vessel, 2 ml of 10% FBS containing M-199 medium was placed to each hole. The TE-1 cells were cultured in this medium. Thereafter, the medium was replaced with 2 ml of 1% FBS containing M-199 mediums which respectively contained compounds (1) and (8). Also, the medium was replaced with 1% FBS containing M-199 medium alone.
On the other hand, culture plates equipped with a Millipore filter at the inner vessel (size: 30×7 mm) bottom, were prepared. The type-1 collagen gel was placed in the inner vessel. On each of the type-1 collagen gel, 2 ml of the HOME cells suspension in the 10% FBS containing M-199 medium were planted. […]
The total tube length in the HOME cells cultured was measured in the same manner as in Experiment 2.

For test [4], the system named is M-5076 (mouse ovarian reticulo sarcoma). The test can be described thus: In-vivo anti-tumor activity, M-5076 transplanted in C57BL6 mouse. As to conditions: for Relative tumor proliferation rate (Trv/Crv(%)): day 21, control 100.0; for anti-tumor activity in vivo: in words. How it is done:
In-vivo anti-tumor activity of the compounds of the present invention was tested.
M-5076 (mouse ovarian reticulo sarcoma, mouse ovary cancer) was intraperitoneally (i.p.) inoculated in C57BL6 mouse, and maintained by ip passage. The obtained ascites tumor cells werediluted with PBS (-) to cellular number of 2×10^7 cells/ml. 50 μl of the dilute solution (cellular number: 1×10^6) was subcutaneously (s.c.) transplanted to the right dorsal part of C57BL6 mouse (6 week old, female). From 7 days after the tumor cell inocutation, a sample was administrated to the mouse. The sample was prepared by suspending compounds (1) and (8) in 2% Tween 80 PBS (-) solution. The suspension was subcutaneously injected to a mouse in a dose of 100 μl per mouse. Three dosages, i.e., 400 mg/kg, 200 mg/kg and 100 mg/kg were set for the injection.
Mitomycin C (MMC) and Fumagillin Were employed in positive controls. MMC was intravascularly injected 4 times every two day. Other test samples and Fumagillin were intravascularly injected 6 times in total in a rate of 3 times/week. The test was carried out using N=9 in controls and N=5 in other groups.
Twenty one days after the inocutation of the tumor cells (14 days after the next day of the initiation of the sample injection), a relative tumor proliferation rate were examined to determine the anti-tumor effect of the samples.
The relative tumor proliferation rate are indicated by the following equation.
A significant difference test was performed by the Mann-Whitney U-Test. [formula]

[5] abbreviates: 100 mg/kg, 6 injections, 3 times/week.
Where [6] appears, read: 200 mg/kg, 6 injections, 3 times/week.
Where [7] appears, read: 400 mg/kg, 6 injections, 3 times/week.

As to `COc1cc(-c2oc(-c3ccc(O)c(OC)c3)c(C)c2C)ccc1O` [Compound 1], the results for the activity in test [1] (TGFα Free) and in test [1] (TGFα added) were 13.9% and 24%, respectively. In test [1], this molecule returned an inhibition at 10 µg/mL of 50 to 86%. For the same molecule, the Tube formation remaining (%) at 10 µg/mL in test [2] fell in the range of 50 to 80%. Also, the “Total length of lumen/HPF” value in test [2] is 0.337 10^3 μm; in test [3], 0.250 10^3 μm. For the same molecule, the results for the “Relative tumor proliferation rate (Trv/Crv(%))” value in test [4] (setting [5]), in test [4] (setting [6]) and in test [4] (setting [7]) were 37.1%, 37.4% and 51.3%, respectively. Moreover, the “anti-tumor activity in vivo” value in test [4] is given as “significant anti-tumor activity in vivo”.
For the molecule `COc1ccc(-c2oc(-c3ccc(OC)c(OC)c3)c(C)c2C)cc1OC` [Compound 2], in test [1] (TGFα Free), the activity is 69%. In test [1] (TGFα added), the activity was determined as 68.2%. Besides, in test [2], the Tube formation remaining (%) at 10 µg/mL lay within 40 to 60% and the “Total tube length/HPF” value was 1.115 10^3 μm.
In the case of `Cc1c(-c2ccc(O)c(O)c2)oc(-c2ccc(O)c(O)c2)c1C` [Compound 3, 3,4-dimethyl-2,5-bis(3,4-dihydroxyphenyl)furan], the activity in test [1] (TGFα Free) came out at 52.7%; in test [1] (TGFα added), 73.1%.
As to `COc1cc(-c2oc(-c3ccc(OC(C)=O)c(OC)c3)c(C)c2C)ccc1OC(C)=O` [Compound 4], the activity turned out to be 50.2% in test [1] (TGFα Free) and 60.4% in test [1] (TGFα added). In addition, in test [2], the “Total tube length/HPF” value is recorded as 2.127 10^3 μm.
Take `Cc1c(-c2ccc3c(c2)OCO3)oc(-c2ccc3c(c2)OCO3)c1C` [Compound 6, 3,4-dimethyl-2,5-bis(3,4-methylenedioxyphenyl)-furan]: in test [1] (TGFα Free), the activity was determined as 45.2%. In addition, the activity in test [1] (TGFα added) came out at 59.9%. Moreover, the inhibition at 10 µg/mL in test [1] lay within 50 to 86%. For the same molecule, in test [2], the Tube formation remaining (%) at 10 µg/mL was 40 to 60% and the “Total tube length/HPF” value is 1.240 10^3 μm.
On to `Cc1c(-c2ccc3c(c2)OCCO3)oc(-c2ccc3c(c2)OCCO3)c1C` [Compound 7, 3,4-dimethyl-2,5-bis(3,4-ethylenedioxyphenyl)furan], for which the activity in test [1] (TGFα Free) was determined as 33.3%; in test [1] (TGFα added) it was 31.4%. The Tube formation remaining (%) at 10 µg/mL in test [2] was 40 to 60%. Moreover, the “Total tube length/HPF” value in test [2] is listed as 1.195 10^3 μm.
For `COc1ccc(-c2oc(-c3ccc(OC)c(O)c3)c(C)c2C)cc1O` [Compound 8, 2,5-bis(3'-hydroxyl-4'-methoxyphenl)-3,4-dimethylfuran], the activity came to 69.4% in test [1] (TGFα Free) and 44.2% in test [1] (TGFα added). Also, in test [1], the inhibition at 10 µg/mL is 50 to 86%. Besides, in test [2], the Tube formation remaining (%) at 10 µg/mL is 50 to 80%. In addition, the figures for the “Total length of lumen/HPF” value in test [2] and in test [3] were 0.422 10^3 μm and 0.277 10^3 μm, respectively. The “Relative tumor proliferation rate (Trv/Crv(%))” value in test [4] (setting [5]) came to 59.4%; in test [4] (setting [6]), 41.4%; in test [4] (setting [7]), 37.4%. The “anti-tumor activity in vivo” value in test [4] is listed as “significant anti-tumor activity in vivo”.
As to `COc1cc(-c2oc(C)c(-c3ccc(O)c(OC)c3)c2C)ccc1O` [Compound 9, 2,4-bis(4-hydroxy-3-methoxyphenyl)-3,5-dimethylfuran], the activity in test [1] (TGFα Free) turned out to be 63.3%. Moreover, the activity in test [1] (TGFα added) came out at 73%. Further, in test [2], the Tube formation remaining (%) at 10 µg/mL lay in the range of 50 to 80% and the “Total length of lumen/HPF” value was 0.496 10^3 μm.
`COc1cc(-c2oc(-c3ccc(O)c(OC)c3)c(CC(C)C)c2CC(C)C)ccc1O` [Compound 10, 2,5-bis(4'-hydroxy-3'-methoxyphenyl)-3,4-diisobutylfuran]: in test [2], the Tube formation remaining (%) at 10 µg/mL was in the range of 50 to 80% and the “Total length of lumen/HPF” value is recorded as 0.655 10^3 μm.
`COc1cc(-c2oc(-c3cc(OC)c(O)c(OC)c3)c(C)c2C)cc(OC)c1O` [Compound 11, 2,5-bis(4'-hydroxy-3',5'-dimethoxyphenyl)-3,4-dimethylfuran]: the activity in test [1] (TGFα Free) stood at 81.2%. In addition, the activity in test [1] (TGFα added) was 56.1%. In test [2], the Tube formation remaining (%) at 10 µg/mL fell in the range of 50 to 80% and the “Total length of lumen/HPF” value is reported as 0.817 10^3 μm.
For the molecule `CCOC(=O)c1c(-c2ccc(O)c(OC)c2)oc(-c2ccc(O)c(OC)c2)c1C(=O)OCC` [Compound 12, Diethyl 2,5-bis(4'-hydroxy-3'-methoxyphenyl)furan-3,4-dicarboxylate], the activity stood at 72.7% in test [1] (TGFα Free) and 58.4% in test [1] (TGFα added). Besides, the Tube formation remaining (%) at 10 µg/mL in test [2] was 50 to 80%. Moreover, the “Total length of lumen/HPF” value in test [2] is 0.736 10^3 μm.
For the molecule `CO[C@@H]1[C@H](OC(=O)/C=C/C=C/C=C/C=C/C(=O)O)CC[C@]2(CO2)[C@H]1[C@@]1(C)O[C@@H]1CC=C(C)C` [Fumagillin, reference compound], the “Relative tumor proliferation rate (Trv/Crv(%))” value in test [4] (30 mg/kg, 6 injections, 3 times/week) amounted to 41.7%.
Turning to `CO[C@@]12[C@H](COC(N)=O)C3=C(C(=O)C(C)=C(N)C3=O)N1C[C@@H]1N[C@@H]12` [MMC, Mitomycin C, reference compound], the “Relative tumor proliferation rate (Trv/Crv(%))” value in test [4] (3.2 mg/kg, intravascular, 4 times every two days) is recorded as 7.9%.

Values taken from US5629340A, “Angiogenesis inhibitor and novel compound” (Tsumura & Co., priority 1993, dated 1997).
